Reference: patent US20260363244A1, “HERBICIDAL COMPOSITIONS COMPRISING URACILS” (BASF SE, priority 2022, published 2026)
Where two headings read alike, the source gives them in different places.

Experiments:
Assay type in all cases: in vivo
Avena fatua = assay: greenhouse post-emergence herbicidal activity, AVEFA; conditions: read-out: % activity (solo application); for activity at 0.5 g/ha: 0.5 gai/ha
Experimental: (§1) The following examples serve to illustrate the invention.
(§2) The culture containers used were plastic pots containing loamy sand with approximately 3.0% of humus as substrate. The seeds of the test plants were sown separately for each species.
(§3) For the post-emergence treatment, the test plants were grown to a plant height of from 3 to 15 cm, depending on the plant habit, and only then treated with the active compounds which had been suspended or emulsified in water. To this end, the test plants were either sown directly, and grown in the same containers, or they were first grown separately as seedlings and transplanted into the test containers a few days prior to treatment.
(§4) Depending on the species, the plants were kept at 10-25 °C and 20-35 °C, respectively. The test period extended over 2 to 4 weeks. During this time, the plants were tended and their response to the individual treatments was evaluated.
(§5) Evaluation was carried out using a scale from 0 to 100. 100 means no emergence of the plants, or complete destruction of at least the above-ground parts, and 0 means no damage or normal course of growth. A good herbicidal activity is given at values of at least 70, and very good herbicidal activity is given at values of at least 85.
(§6) The respective stated components A and B, and if appropriate, C were formulated as a 5% by weight strength emulsion concentrate and, with addition of the amount of solvent system, introduced into the spray liquor used for applying the active compound. In the examples, the solvent used was water.
(§7) In the examples below, using the method of S. R. Colby (1967) “Calculating synergistic and antagonistic responses of herbicide combinations”, Weeds 15, p. 22ff., the value E, which is expected if the activity of the individual active compounds is only additive, was calculated.
(§8) E=X+Y−(X·Y/100) • where • X=percent activity using active compound A at an application rate a; • Y=percent activity using active compound B at an application rate b; • E=expected activity (in %) by A+B at application rates a+b.
(§9) The plants used in the greenhouse experiments were of the following species
(§10) In this context, a.i. means active ingredient, based on 100% active ingredient.
(§11) As indicated the application was post emergent (POST) at the respective growth stage (GS) of the weed.
(§12) Assessment was at the indicated days after treatment (DAT).

Amaranthus tamariscinus = assay: greenhouse post-emergence herbicidal activity, AMATA; conditions: read-out: % activity (solo application); for activity at 0.5 g/ha: 0.5 gai/ha; for activity at 0.2 g/ha: 0.2 gai/ha
Experimental: as §1, §2, §3, §4, §5, §6, §7, §8, §9, §10, §11, §12

Setaria viridis = assay: greenhouse post-emergence herbicidal activity, SETVI; conditions: Setaria viridis, post-emergence, read-out: % activity (solo application); for activity at 0.5 g/ha: 0.5 gai/ha; for activity at 0.2 g/ha: 0.2 gai/ha; for activity at 0.4 g/ha: 0.4 gai/ha
Experimental: as §1, §2, §3, §4, §5, §6, §7, §8, §9, §10, §11, §12

Setaria faberi = assay: greenhouse post-emergence herbicidal activity, SETFA; conditions: for % activity (solo application) / activity at 0.5 g/ha: 0.5 gai/ha; for activity at […]: 0.25 gai/ha
Experimental: as §1, §2, §3, §4, §5, §6, §7, §8, §9, §10, §11, §12

Lolium multiflorum = assay: greenhouse post-emergence herbicidal activity, LOLMU; conditions: Lolium multiflorum, post-emergence, read-out: % activity (solo application); for activity at […]: 1.6 gai/ha
Experimental: as §1, §2, §3, §4, §5, §6, §7, §8, §9, §10, §11, §12

Echinocloa crus-galli = assay: greenhouse post-emergence herbicidal activity, ECHCG; conditions: Echinochloa crus-galli, post-emergence, read-out: % activity (solo application)
Experimental: as §1, §2, §3, §4, §5, §6, §7, §8, §9, §10, §11, §12

[1] = 480 h, GS 11-33, 20 DAT, 0.2 gai/ha
[2] = 480 h, GS 11-33, 20 DAT, 0.8 gai/ha
[3] = 480 h, GS 11-33, 20 DAT, 1.6 gai/ha
[4] = 480 h, GS 12-16, 20 DAT, 0.25 gai/ha
[5] = 144 h, GS 12-16, 6 DAT, 0.25 gai/ha
[6] = Setaria faberi, post-emergence, 144 h, GS 12-16, 6 DAT, read-out: % activity (solo application)
[7] = Setaria faberi, post-emergence, 480 h, GS 12-16, 20 DAT, read-out: % activity (solo application)

CCOC(=O)COc1ccccc1Oc1nc(-n2c(=O)cc(C(F)(F)F)n(C)c2=O)c(F)cc1Cl [(I.3)]
activity at 0.5 g/ha (Avena fatua; 168 h, GS 12-16, 7 DAT): 40% | activity at 0.2 g/ha (Avena fatua; [1]): 10% | activity at 0.8 g/ha (Avena fatua; [2]): 15% | activity at […] (Avena fatua; [3]): 30% | activity at […] (Avena fatua; [4]): 10% | activity at 0.5 g/ha (Avena fatua; 480 h, GS 12-16, 20 DAT): 25% | activity at 0.5 g/ha (Amaranthus tamariscinus; 144 h, GS 12-16, 6 DAT): 90% | activity at 0.2 g/ha (Amaranthus tamariscinus; 168 h, GS 11-33, 7 DAT): 70% | activity at 0.2 g/ha (Amaranthus tamariscinus; 480 h, GS 11-33, 20 DAT): 40% | activity at […] (Amaranthus tamariscinus; [3]): 90% | activity at […] (Amaranthus tamariscinus; [4]): 70% | activity at 0.5 g/ha (Amaranthus tamariscinus; 480 h, GS 12-16, 20 DAT): 85% | activity at […] (Setaria viridis; [5]): 35% | activity at 0.5 g/ha (Setaria viridis; 144 h, GS 12-16, 6 DAT): 60% | activity at 0.2 g/ha (Setaria viridis; 192 h, GS 11-33, 8 DAT): 20% | activity at 0.4 g/ha (Setaria viridis; 192 h, GS 11-33, 8 DAT): 25% | activity at […] (Setaria viridis; 192 h, GS 11-33, 8 DAT, 1.6 gai/ha): 95% | activity at 0.2 g/ha (Setaria viridis; 480 h, GS 11-33, 20 DAT): 5% | activity at 0.4 g/ha (Setaria viridis; 480 h, GS 11-33, 20 DAT): 10% | activity at […] (Setaria viridis; [3]): 90% | activity at […] (Setaria viridis; [4]): 30% | activity at 0.5 g/ha (Setaria viridis; 480 h, GS 12-16, 20 DAT): 85% | % activity (solo application) (Setaria faberi; GS 12-16, 6 DAT): 60% | % activity (solo application) (Setaria faberi; GS 12-16, 20 DAT): 60% | activity at […] (Setaria faberi; [6]): 55% | activity at 0.5 g/ha (Setaria faberi; [6]): 65% | activity at 0.5 g/ha (Setaria faberi; Setaria faberi, post-emergence, 168 h, GS 12-16, 7 DAT, read-out: % activity (solo application)): 75% | activity at 0.2 g/ha (Setaria faberi; Setaria faberi, post-emergence, 480 h, GS 11-33, 20 DAT, 0.2 gai/ha, read-out: % activity (solo application)): 15% | activity at 0.4 g/ha (Setaria faberi; Setaria faberi, post-emergence, 480 h, GS 11-33, 20 DAT, 0.4 gai/ha, read-out: % activity (solo application)): 80% | activity at […] (Setaria faberi; [7]): 55% | activity at 0.5 g/ha (Setaria faberi; [7]): 55% | activity at 0.5 g/ha (Setaria faberi; Setaria faberi, post-emergence, 504 h, GS 12-16, 21 DAT, read-out: % activity (solo application)): 70% | activity at […] (Lolium multiflorum; 168 h, GS 11-33, 7 DAT): 30% | activity at 0.2 g/ha (Lolium multiflorum; [1]): 5% | activity at 0.8 g/ha (Lolium multiflorum; [2]): 10% | activity at […] (Lolium multiflorum; 480 h, GS 11-33, 20 DAT): 10% | activity at […] (Echinocloa crus-galli; [5]): 40% | activity at 0.5 g/ha (Echinocloa crus-galli; 144 h, GS 12-16, 6 DAT, 0.5 gai/ha): 55% | activity at […] (Echinocloa crus-galli; 168 h, GS 11-33, 7 DAT, 1.6 gai/ha): 60% | activity at […] (Echinocloa crus-galli; [3]): 60%
